Reference: patent publication US20040220268A1, “Compound that directly stimulates phospholipase C activity” (priority 2003, published 2004)

Tests used:
PLC δ1 = molecular target: T1, PLC δ1 (Homo sapiens, UniProt P51178); experiment: Phosphoinositide hydrolysis in vitro; assay type: biochemical; details: 25 μM; purified isozyme
T1 sequence (P51178 1-756): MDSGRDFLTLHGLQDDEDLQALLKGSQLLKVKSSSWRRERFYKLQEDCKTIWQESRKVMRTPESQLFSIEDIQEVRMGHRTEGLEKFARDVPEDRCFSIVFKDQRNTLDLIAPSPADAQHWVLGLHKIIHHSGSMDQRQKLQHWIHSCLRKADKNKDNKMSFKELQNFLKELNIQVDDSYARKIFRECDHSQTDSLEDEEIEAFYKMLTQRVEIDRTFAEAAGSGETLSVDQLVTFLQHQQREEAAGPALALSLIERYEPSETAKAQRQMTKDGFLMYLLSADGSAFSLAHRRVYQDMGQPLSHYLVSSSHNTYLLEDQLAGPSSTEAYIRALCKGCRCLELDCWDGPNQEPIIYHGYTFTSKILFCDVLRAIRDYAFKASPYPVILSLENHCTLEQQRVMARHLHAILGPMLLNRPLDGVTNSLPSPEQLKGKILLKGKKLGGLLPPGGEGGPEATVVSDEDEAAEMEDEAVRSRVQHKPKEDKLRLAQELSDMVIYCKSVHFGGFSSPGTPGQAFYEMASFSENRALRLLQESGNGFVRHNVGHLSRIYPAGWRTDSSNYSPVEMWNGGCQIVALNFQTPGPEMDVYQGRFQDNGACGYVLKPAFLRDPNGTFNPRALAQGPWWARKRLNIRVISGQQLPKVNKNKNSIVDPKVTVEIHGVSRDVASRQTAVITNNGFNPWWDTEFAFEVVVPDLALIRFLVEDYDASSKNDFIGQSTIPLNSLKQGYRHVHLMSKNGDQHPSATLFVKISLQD
Protocol: (§1) The hydrolyzing activity of PtdIns-4,5-P2 was measured on mixed phospholipid vesicles containing 120 μM phosphatidylethanolamine, 30 μM PtdIns-4,5-P2, and 1 μCi/ml [3H] PtdIns-4,5-P2. Purified PLC β2, substrates, and the chemicals (2.5, 5, 10, 20, and 25 μM of m-3M3FBS or of o-3M3FBS) were coincubated (A), 25 μM of m-3M3FBS or o-3M3FBS, and phospholipid substrates were mixed with purified PLC β3, γ1, 2, or δ1 (B). Reactions were performed for 10 min at 37° C. in a 200 μl reaction mixture containing lipid micelles (5 μM [^3H] PtdIns-4,5-P2, 20,000 cpm). Reactions were stopped by adding 1 ml of CHCl3:CH3OH:HCl (50:50:0.3, v/v/v). Inositol trisphosphates were extracted with 0.5 ml of 1 M HCl/5 mM EGTA, and the radioactivity in the upper aqueous phase was measured. Data are presented as means ±S. E. M. of three independent experiments (A, B).
(§2) PLC activity was assayed using [^3H] PtdIns-4,5-P2 as a substrate (Min et al., 1993). PtdIns-4,5-P2-hydrolyzing activity was measured with mixed phospholipid micelles containing 120 μM phosphatidylethanolamine, 30 μM PtdIns-4,5-P2, and 1 μCi/ml [^3H] PtdIns-4,5-P2. The lipids, in chloroform, were dried under a stream of nitrogen gas, suspended in assay buffer (20 mM HEPES pH 7.0, 120 mM NaCl, 2 mM MgCl2, 40 or 100 μM CaCl2, and 1 mg/ml bovine albumin serum (Bayer, Leverkusen, Germany)), and sonicated. All proteins added to the reaction mixture were dialyzed overnight against the assay buffer. Incubation was performed for 10 min at 37° C. in a 200 μl reaction mixture containing lipid micelles (5 μM [3H] PtdIns-4,5-P2, 20,000 cpm). The reaction was stopped by adding 2 ml of CHCl3: CH3OH: HCl (50: 50: 0.3, v/v/v). The inositol triphosphates were extracted with 0.5 ml of 1 N HCl, and radioactivities in the upper aqueous phase were measured.

PLC γ2 = molecular target: T2, PLC γ2 (Homo sapiens, UniProt P16885); experiment: Phosphoinositide hydrolysis in vitro; assay type: biochemical; details: 25 μM; purified isozyme
T2 sequence (P16885 1-1265): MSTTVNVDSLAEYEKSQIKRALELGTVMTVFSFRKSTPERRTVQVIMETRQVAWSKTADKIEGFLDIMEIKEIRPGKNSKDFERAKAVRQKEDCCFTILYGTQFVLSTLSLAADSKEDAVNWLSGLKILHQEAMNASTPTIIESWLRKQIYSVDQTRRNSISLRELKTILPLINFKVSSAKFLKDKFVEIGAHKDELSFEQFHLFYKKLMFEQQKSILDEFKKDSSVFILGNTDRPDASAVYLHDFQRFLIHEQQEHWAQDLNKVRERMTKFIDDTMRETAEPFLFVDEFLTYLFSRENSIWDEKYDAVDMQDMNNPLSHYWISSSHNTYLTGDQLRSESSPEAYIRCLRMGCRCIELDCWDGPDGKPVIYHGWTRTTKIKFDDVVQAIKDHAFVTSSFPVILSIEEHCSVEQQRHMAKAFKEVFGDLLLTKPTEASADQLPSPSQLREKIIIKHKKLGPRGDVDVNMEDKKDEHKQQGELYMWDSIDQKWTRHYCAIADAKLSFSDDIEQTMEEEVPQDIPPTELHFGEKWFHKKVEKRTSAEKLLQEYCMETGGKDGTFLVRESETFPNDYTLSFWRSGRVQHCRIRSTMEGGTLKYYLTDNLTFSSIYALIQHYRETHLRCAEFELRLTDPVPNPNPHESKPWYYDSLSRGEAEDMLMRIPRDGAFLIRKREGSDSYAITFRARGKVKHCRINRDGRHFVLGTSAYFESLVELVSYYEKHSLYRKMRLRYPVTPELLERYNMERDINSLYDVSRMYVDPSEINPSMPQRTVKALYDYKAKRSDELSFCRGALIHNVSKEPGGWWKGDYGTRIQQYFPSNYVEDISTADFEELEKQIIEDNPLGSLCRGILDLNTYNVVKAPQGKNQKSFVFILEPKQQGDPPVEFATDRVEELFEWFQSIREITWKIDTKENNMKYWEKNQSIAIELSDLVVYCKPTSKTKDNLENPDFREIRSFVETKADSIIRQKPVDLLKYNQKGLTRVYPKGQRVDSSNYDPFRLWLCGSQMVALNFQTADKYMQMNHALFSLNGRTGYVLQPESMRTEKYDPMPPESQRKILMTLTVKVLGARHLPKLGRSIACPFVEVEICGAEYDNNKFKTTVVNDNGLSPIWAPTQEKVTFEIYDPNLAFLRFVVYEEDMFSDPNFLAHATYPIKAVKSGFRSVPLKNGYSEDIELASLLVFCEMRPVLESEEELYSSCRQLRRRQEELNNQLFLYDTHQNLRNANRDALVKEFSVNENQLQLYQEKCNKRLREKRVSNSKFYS
Protocol: as §1, §2

Cc1cc(C)c(S(=O)(=O)Nc2ccccc2C(F)(F)F)c(C)c1 [o-3M3FBS, 2,4,6-Trimethyl-N-(ortho 3-trifluoromethyl-phenyl)-benzenesulfonamide, reference compound]
activity of PLC delta1 (PLC δ1): did not affect
activity of PLC gamma2 (PLC γ2): did not affect

Cc1cc(C)c(S(=O)(=O)Nc2cccc(C(F)(F)F)c2)c(C)c1 [m-3M3FBS, 2,4,6-Trimethyl-N-(meta 3-trifluoromethyl-phenyl)-benzenesulfonamide]
activity of PLC delta1 (PLC δ1): augmented the activity
activity of PLC gamma2 (PLC γ2): augmented the activity
